# Experimental data: patent publication US20240218022A1, “ANTI-VISTA MACROCYCLIC PEPTIDES AND COMPOSITIONS” (BRISTOL-MYERS SQUIBB COMPANY, priority 2022, published 2024)
# Read-outs that look alike come from different tables or passages of the source. Starred links: 1 amine or outer side, 2 acyl side, 3 side chain; linkers in the order of their positions; H or OH if unused. Positions of bridges follow the written chain, without caps; N, C: chain ends. Non-standard residues stand in square brackets, D forms with d. Residues, ends and D or L forms follow the SMILES beside them. N(3-phenylpropyl)Gly = O=C(O)CNCCCc1ccccc1; γGlu = O=C(O)[C@H](CCC(=O)[*:2])N[*:1]; 2Nal = N[C@@H](Cc1ccc2ccccc2c1)C(=O)O; βAsp = O=C(O)[C@H](CC(=O)[*:2])N[*:1]; Cit = NC(=O)NCCC[C@H](N)C(=O)O; NMeL = CN[C@@H](CC(C)C)C(=O)O; Ahp(2) = CCCCC[C@H](N)C(=O)O; NMeNle = CCCC[C@H](NC)C(=O)O; Tle = CC(C)(C)[C@H](N)C(=O)O; NMeV = CN[C@H](C(=O)O)C(C)C; NHexGly = CCCCCCNCC(=O)O; Nle = CCCC[C@H](N)C(=O)O; Orn = NCCC[C@H](N)C(=O)O; Aun = NCCCCCCCCCCC(=O)O; AEEA = NCCOCCOCC(=O)O
# Biological target: T1, mouse VISTA (mVISTA) (Mus musculus, UniProt Q9D659)
# T1 construct: expressed in transfected cells; host or cells: Human embryonic kidney 293T cells
# T1 sequence (Q9D659 33-308): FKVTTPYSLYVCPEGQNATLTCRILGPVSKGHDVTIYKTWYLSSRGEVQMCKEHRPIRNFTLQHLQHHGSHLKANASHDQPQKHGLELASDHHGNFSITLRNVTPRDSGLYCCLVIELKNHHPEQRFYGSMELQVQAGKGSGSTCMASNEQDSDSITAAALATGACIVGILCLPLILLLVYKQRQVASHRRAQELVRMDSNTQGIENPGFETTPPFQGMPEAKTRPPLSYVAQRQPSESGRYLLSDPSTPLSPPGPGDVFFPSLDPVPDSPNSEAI
# Assay: Cell-Based Binding High-Content Assay For mVISTA (HC CBA mVISTA)
# Summary of the method: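 293T cells expressing mouse VISTA, with compounds added either after seeding ("no wash") or before seeding and then washed out after 1 h. Biotinylated peptide 2 nM for 30 min at room temperature, then detection with Alexa 647–streptavidin. After fixation with Hoechst stain, plates were high-content imaged; IC50 from four-parameter logistic fit.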
# [1] = cell-based binding high-content assay, mVISTA, the 15th table, read-out: HC CBA mVISTA IC50
# [2] = cell-based binding high-content assay, mVISTA, read-out: HC CBA miPr ISTA IC50
# [3] = cell-based binding high-content assay, mVISTA, the 16th table, read-out: HC CBA mVISTA IC50
smiles,measurement,setting,value
CCCCCCN1CC(=O)N[C@@H](Cc2ccc(O)cc2)C(=O)N[C@@H](CCCC)C(=O)N[C@@H](CC(=O)O)C(=O)N[C@@H](CCCNC(N)=O)C(=O)N(C)[C@@H](CCCC)C(=O)N[C@@H](CCCCC)C(=O)N2CCC[C@H]2C(=O)N[C@@H](C(C)C)C(=O)N[C@@H](CC(=O)O)C(=O)N[C@H](C(=O)N[C@@H](CC(=O)O)C(N)=O)CSCC(=O)N[C@@H](Cc2ccc3ccccc3c2)C(=O)N[C@@H](Cc2c[nH]c3ccccc23)C(=O)N[C@@H](CC(=O)O)C1=O [compound 1242] ({CH2CO}-[2Nal]WD[NHexGly]Y[Nle]D[Cit][NMeNle][Ahp(2)]PVDCD-NH2; thioether N-14),IC50,[1],0.0089 µM
CCCCCCN1CC(=O)N[C@@H](Cc2ccc(O)cc2)C(=O)N[C@@H](CCCC)C(=O)N[C@@H](CC(N)=O)C(=O)N[C@@H](CCCNC(=N)N)C(=O)N(C)[C@@H](CCCC)C(=O)N[C@@H](CCCCC)C(=O)N2CCC[C@H]2C(=O)N[C@@H](C(C)C)C(=O)N[C@@H](C(C)C)C(=O)N[C@H](C(=O)NCC(=O)O)CSCC(=O)N[C@@H](Cc2ccc3ccccc3c2)C(=O)N[C@@H](Cc2c[nH]c3ccccc23)C(=O)N[C@@H](CC(=O)O)C1=O [compound 1248] ({CH2CO}-[2Nal]WD[NHexGly]Y[Nle]NR[NMeNle][Ahp(2)]PVVCG-OH; thioether N-14),IC50,[1],0.0384 µM
CCCCCCN1CC(=O)N[C@@H](Cc2ccc(O)cc2)C(=O)N[C@@H](CC(C)C)C(=O)N[C@@H](CC(=O)O)C(=O)N[C@@H](CCCN)C(=O)N[C@@H](CC(C)C)C(=O)N[C@@H](CCCCC)C(=O)N2CCC[C@H]2C(=O)N[C@@H](C(C)C)C(=O)N[C@@H](CO)C(=O)N[C@H](C(=O)NCC(N)=O)CSCC(=O)N[C@@H](Cc2ccccc2)C(=O)N[C@@H](Cc2c[nH]c3ccccc23)C(=O)N[C@@H](CC(=O)O)C1=O [Example 1359] ({CH2CO}-FWD[NHexGly]YLD[Orn]L[Ahp(2)]PVSCG-NH2; thioether N-14),IC50,read-out: HC CBA mVISTA IC50,0.0171 µM
CCCCCCN1CC(=O)N[C@@H](Cc2ccc(O)cc2)C(=O)N[C@@H](CC(C)C)C(=O)N[C@@H](CC(N)=O)C(=O)N[C@@H](CCCNC(=N)N)C(=O)N(C)[C@@H](C(C)C)C(=O)N[C@@H](CCCCC)C(=O)N2CCC[C@H]2C(=O)N[C@@H](C(C)(C)C)C(=O)N[C@@H](CC(=O)O)C(=O)N[C@H](C(=O)N[C@@H](CC(=O)NCCOCCOCC(=O)N[C@@H](CC(=O)O)C(=O)NCCOCCOCC(=O)NCCCCCCCCCCC(=O)O)C(=O)O)CSCC(=O)N[C@@H](Cc2ccccc2)C(=O)N[C@@H](Cc2c[nH]c3ccccc23)C(=O)N[C@@H](CC(=O)O)C1=O [compound 2040] ({CH2CO}-FWD[NHexGly]YLNR[NMeV][Ahp(2)]P[Tle]DC[βAsp][AEEA]D[AEEA][Aun]-OH; thioether N-14),IC50,[2],0.0407 µM
CCCCCCN1CC(=O)N[C@@H](Cc2ccc(O)cc2)C(=O)N[C@@H](CC(C)C)C(=O)N[C@@H](CC(N)=O)C(=O)N[C@@H](CCCN)C(=O)N(C)[C@@H](CC(C)C)C(=O)N[C@@H](CCCCC)C(=O)N2CCC[C@H]2C(=O)N[C@@H](C(C)(C)C)C(=O)N[C@@H](CO)C(=O)N[C@H](C(=O)N[C@@H](CC(=O)NCCOCCOCC(=O)N[C@@H](CC(=O)O)C(=O)NCCOCCOCC(=O)NCCCCCCCCCCC(=O)O)C(=O)O)CSCC(=O)N[C@@H](Cc2ccccc2)C(=O)N[C@@H](Cc2ccc(O)cc2)C(=O)N[C@@H](CC(=O)O)C1=O [Example 2000] ({CH2CO}-FYD[NHexGly]YLN[Orn][NMeL][Ahp(2)]P[Tle]SC[βAsp][AEEA]D[AEEA][Aun]-OH; thioether N-14),IC50,[2],0.0161 µM
CCCCC[C@@H]1NC(=O)[C@H](CCCC)N(C)C(=O)[C@H](CCCN)NC(=O)[C@H](CC(N)=O)NC(=O)[C@H](CC(C)C)NC(=O)[C@H](Cc2ccc(O)cc2)NC(=O)CN(CCCc2ccccc2)C(=O)[C@H](CC(=O)O)NC(=O)[C@H](Cc2ccc(O)cc2)NC(=O)[C@H](Cc2ccccc2)NC(=O)CSC[C@@H](C(=O)NCC(N)=O)NC(=O)[C@H](CO)NC(=O)[C@H](C(C)C)NC(=O)[C@@H]2CCCN2C1=O [Example 1085] ({CH2CO}-FYD[N(3-phenylpropyl)Gly]YLN[Orn][NMeNle][Ahp(2)]PVSCG-NH2; thioether N-14),IC50,"293T cells expressing mouse VISTA, competition with biotinylated peptide (2 nM), read-out: HC CBA mVISTA IC50",0.0318 µM
CCCCCCN1CC(=O)N[C@@H](Cc2ccc(O)cc2)C(=O)N[C@@H](CCCC)C(=O)N[C@@H](CC(N)=O)C(=O)N[C@@H](CCCNC(N)=O)C(=O)N[C@@H](CC(C)C)C(=O)N[C@@H](CCCCC)C(=O)N2CCC[C@H]2C(=O)N[C@@H](C(C)C)C(=O)N[C@@H](CO)C(=O)N[C@H](C(=O)NCCOCCOCC(=O)N[C@@H](CC(=O)O)C(=O)NCCOCCOCC(=O)NCCCCCCCCCCC(=O)O)CSCC(=O)N[C@@H](Cc2ccc3ccccc3c2)C(=O)N[C@@H](Cc2ccc(O)cc2)C(=O)N[C@@H](CC(=O)O)C1=O (stereo in doubt) [compound 2305],IC50,"cell-based binding high-content assay, read-out: HC CBA miPrISTA IC50",0.023 µM
CCCCCCN1CC(=O)N[C@@H](Cc2ccc(O)cc2)C(=O)N[C@@H](CCCC)C(=O)N[C@@H](CC(N)=O)C(=O)N[C@@H](CCCNC(=N)N)C(=O)N[C@@H](CC(C)C)C(=O)N[C@@H](CCCCC)C(=O)N2CCC[C@H]2C(=O)N[C@@H](C(C)C)C(=O)N[C@@H](CO)C(=O)N[C@H](C(=O)NCC(N)=O)CSCC(=O)N[C@@H](Cc2ccc(O)cc2)C(=O)N[C@@H](Cc2ccc(O)cc2)C(=O)N[C@@H](CC(=O)O)C1=O [compound 1474] ({CH2CO}-YYD[NHexGly]Y[Nle]NRL[Ahp(2)]PVSCG-NH2; thioether N-14),IC50,"the 20th table, scaffold drawing 23, read-out: HC CBA mVISTA IC50",0.0404 µM
CCCCCCN1CC(=O)N[C@@H](Cc2ccc(O)cc2)C(=O)N[C@@H](CCCC)C(=O)N[C@@H](CC(N)=O)C(=O)N[C@@H](CCCNC(=N)N)C(=O)N[C@@H](CC(C)C)C(=O)N[C@@H](CCCCC)C(=O)N2CCC[C@H]2C(=O)N[C@@H](C(C)C)C(=O)N[C@@H](CO)C(=O)N[C@H](C(=O)NCCOCCOCC(=O)N[C@@H](CCC(=O)NCCOCCOCC(=O)NCCCCCCCCCCC(=O)O)C(=O)O)CSCC(=O)N[C@@H](Cc2ccc3ccccc3c2)C(=O)N[C@@H](Cc2ccc(O)cc2)C(=O)N[C@@H](CC(=O)O)C1=O [compound 2223] ({CH2CO}-[2Nal]YD[NHexGly]Y[Nle]NRL[Ahp(2)]PVSC[AEEA][γGlu][AEEA][Aun]-OH; thioether N-14),IC50,read-out: HC CBA mVISTA IC50,0.0124 µM
CCCCCCN1CC(=O)N[C@@H](Cc2ccc(O)cc2)C(=O)N[C@@H](CCCCN)C(=O)N[C@@H](CC(=O)O)C(=O)N[C@@H](CCCN)C(=O)N[C@@H](CC(C)C)C(=O)N[C@@H](CCCCC)C(=O)N2CCC[C@H]2C(=O)N[C@@H](C(C)C)C(=O)N[C@@H](CO)C(=O)N[C@H](C(=O)NCC(=O)O)CSCC(=O)N[C@@H](Cc2ccc3ccccc3c2)C(=O)N[C@@H](Cc2ccc(O)cc2)C(=O)N[C@@H](CC(=O)O)C1=O [Ex 1289] ({CH2CO}-[2Nal]YD[NHexGly]YKD[Orn]L[Ahp(2)]PVSCG-OH; thioether N-14),IC50,[3],0.0252 µM
CCCCCCN1CC(=O)N[C@@H](Cc2ccc(O)cc2)C(=O)N[C@@H](C(C)C)C(=O)NCC(=O)N[C@@H](CCCNC(=N)N)C(=O)N[C@@H](CC(C)C)C(=O)N[C@@H](CCCCC)C(=O)N2CCC[C@H]2C(=O)N[C@@H](C(C)C)C(=O)N[C@@H](CC(=O)O)C(=O)N[C@H](C(=O)N[C@@H](Cc2ccc(O)cc2)C(N)=O)CSCC(=O)N[C@@H](Cc2ccc3ccccc3c2)C(=O)N[C@@H](Cc2ccc(O)cc2)C(=O)N[C@@H](CC(=O)O)C1=O [Ex 1322] ({CH2CO}-[2Nal]YD[NHexGly]YVGRL[Ahp(2)]PVDCY-NH2; thioether N-14),IC50,[3],0.0055 µM
CCCCCCN1CC(=O)N[C@@H](Cc2ccc(O)cc2)C(=O)N[C@@H](CC(C)C)C(=O)N[C@@H](CC(N)=O)C(=O)N[C@@H](CCCNC(=N)N)C(=O)N[C@@H](CC(C)C)C(=O)N[C@@H](CCCCC)C(=O)N2CCC[C@H]2C(=O)N[C@@H](C(C)(C)C)C(=O)N[C@@H](CC(=O)O)C(=O)N[C@H](C(=O)NCCOCCOCC(=O)N[C@@H](CCC(=O)NCCOCCOCC(=O)NCCCCCCCCCCC(=O)O)C(=O)O)CSCC(=O)N[C@@H](Cc2ccccc2)C(=O)N[C@@H](Cc2ccc(O)cc2)C(=O)N[C@@H](CC(=O)O)C1=O [compound 2232] ({CH2CO}-FYD[NHexGly]YLNRL[Ahp(2)]P[Tle]DC[AEEA][γGlu][AEEA][Aun]-OH; thioether N-14),IC50,read-out: HC CBA mVISTA IC50,0.013 µM
CCCCCCN1CC(=O)N[C@@H](Cc2ccc(O)cc2)C(=O)N[C@@H](CC(C)C)C(=O)N[C@@H](CC(=O)O)C(=O)N[C@@H](CCCNC(=N)N)C(=O)N[C@@H](CC(C)C)C(=O)N[C@@H](CCCCC)C(=O)N2CCC[C@H]2C(=O)N[C@@H](C(C)C)C(=O)N[C@@H](CC(=O)O)C(=O)N[C@H](C(=O)NCC(=O)O)CSCC(=O)N[C@@H](Cc2ccc3ccccc3c2)C(=O)N[C@@H](Cc2ccc(O)cc2)C(=O)N[C@@H](CC(=O)O)C1=O [Ex 1278] ({CH2CO}-[2Nal]YD[NHexGly]YLDRL[Ahp(2)]PVDCG-OH; thioether N-14),IC50,[3],0.024 µM
CCCCCCN1CC(=O)N[C@@H](Cc2ccc(O)cc2)C(=O)N[C@@H](CCCC)C(=O)N[C@@H](CC(N)=O)C(=O)N[C@@H](CCCNC(=N)N)C(=O)N(C)[C@@H](CC(C)C)C(=O)N[C@@H](CCCCC)C(=O)N2CCC[C@H]2C(=O)N[C@@H](C(C)C)C(=O)N[C@@H](CC(=O)O)C(=O)N[C@H](C(=O)NCC(=O)O)CSCC(=O)N[C@@H](Cc2ccccc2)C(=O)N[C@@H](Cc2c[nH]c3ccccc23)C(=O)N[C@@H](CC(=O)O)C1=O [Example 1369] ({CH2CO}-FWD[NHexGly]Y[Nle]NR[NMeL][Ahp(2)]PVDCG-OH; thioether N-14),IC50,read-out: HC CBA mVISTA IC50,0.0035 µM
